The target in experiment [1] is T1, Oxysterols receptor LXR-alpha (Homo sapiens, UniProt Q13133).
T1 sequence (Q13133 whole entry): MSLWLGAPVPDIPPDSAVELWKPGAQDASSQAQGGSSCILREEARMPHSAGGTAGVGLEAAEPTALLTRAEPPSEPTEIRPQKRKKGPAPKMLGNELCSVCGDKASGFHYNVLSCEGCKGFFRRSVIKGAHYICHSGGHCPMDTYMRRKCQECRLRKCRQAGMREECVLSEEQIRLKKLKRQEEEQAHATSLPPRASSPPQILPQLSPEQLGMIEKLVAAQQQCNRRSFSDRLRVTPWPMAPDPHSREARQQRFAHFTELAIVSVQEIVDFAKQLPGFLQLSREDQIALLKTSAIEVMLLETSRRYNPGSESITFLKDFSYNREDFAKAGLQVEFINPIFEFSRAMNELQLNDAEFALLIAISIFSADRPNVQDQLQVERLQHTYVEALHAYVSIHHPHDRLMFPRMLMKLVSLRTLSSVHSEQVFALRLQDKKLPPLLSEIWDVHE
It counts as functional.

Experiment [2] has as its target T2, Bile acid receptor (Homo sapiens, UniProt Q96RI1).
T2 sequence (Q96RI1 whole entry): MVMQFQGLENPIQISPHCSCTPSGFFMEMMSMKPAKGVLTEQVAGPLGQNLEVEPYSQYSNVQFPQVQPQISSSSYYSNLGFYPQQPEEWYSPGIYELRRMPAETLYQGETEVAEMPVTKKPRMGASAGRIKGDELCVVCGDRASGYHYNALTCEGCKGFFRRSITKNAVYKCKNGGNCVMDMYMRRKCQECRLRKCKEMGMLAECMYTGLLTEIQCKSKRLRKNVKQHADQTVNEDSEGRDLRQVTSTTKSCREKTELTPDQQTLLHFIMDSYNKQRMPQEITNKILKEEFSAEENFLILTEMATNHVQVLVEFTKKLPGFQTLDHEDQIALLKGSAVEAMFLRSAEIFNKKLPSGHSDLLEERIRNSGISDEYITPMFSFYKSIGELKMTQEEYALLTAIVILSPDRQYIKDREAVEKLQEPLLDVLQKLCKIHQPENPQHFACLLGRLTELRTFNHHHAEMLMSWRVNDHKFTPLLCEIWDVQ
The format is functional.

Experiment [3] has as its target T2, Bile acid receptor. The format is functional. The source holds these as a separate data set.
In experiment [4] the target is T3, Retinoic acid receptor alpha (Homo sapiens, UniProt P10276).
T3 sequence (P10276 whole entry): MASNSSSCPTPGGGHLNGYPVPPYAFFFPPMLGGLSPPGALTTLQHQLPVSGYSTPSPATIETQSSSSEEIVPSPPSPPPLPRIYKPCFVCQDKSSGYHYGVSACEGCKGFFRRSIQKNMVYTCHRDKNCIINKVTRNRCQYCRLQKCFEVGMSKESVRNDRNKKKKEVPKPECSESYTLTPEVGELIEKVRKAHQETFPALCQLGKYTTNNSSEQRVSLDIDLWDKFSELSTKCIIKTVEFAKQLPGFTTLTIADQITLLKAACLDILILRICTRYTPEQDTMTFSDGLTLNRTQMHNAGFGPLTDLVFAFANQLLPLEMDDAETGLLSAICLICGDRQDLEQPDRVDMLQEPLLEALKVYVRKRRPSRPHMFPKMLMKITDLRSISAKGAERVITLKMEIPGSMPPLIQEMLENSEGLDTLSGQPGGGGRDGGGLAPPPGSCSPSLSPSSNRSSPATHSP
It counts as functional, cell-based.

Experiment [5] concerns the target T4, Retinoic acid receptor beta (Homo sapiens, UniProt P10826).
T4 sequence (P10826 whole entry): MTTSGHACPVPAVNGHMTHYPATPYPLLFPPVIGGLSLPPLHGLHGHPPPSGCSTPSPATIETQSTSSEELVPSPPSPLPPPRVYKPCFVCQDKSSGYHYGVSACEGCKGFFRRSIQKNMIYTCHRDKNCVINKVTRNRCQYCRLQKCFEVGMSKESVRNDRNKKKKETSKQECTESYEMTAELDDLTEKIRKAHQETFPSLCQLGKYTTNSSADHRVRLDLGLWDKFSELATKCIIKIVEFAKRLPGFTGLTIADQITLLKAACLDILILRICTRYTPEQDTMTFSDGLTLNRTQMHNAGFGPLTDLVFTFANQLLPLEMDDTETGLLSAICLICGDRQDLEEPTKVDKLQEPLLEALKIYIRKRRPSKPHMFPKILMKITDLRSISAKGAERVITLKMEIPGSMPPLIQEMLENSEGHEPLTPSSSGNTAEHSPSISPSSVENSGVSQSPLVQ
It counts as functional, cell-based.

Experiment [6] has as its target T5, Retinoic acid receptor gamma (Homo sapiens, UniProt P13631).
T5 sequence (P13631 whole entry): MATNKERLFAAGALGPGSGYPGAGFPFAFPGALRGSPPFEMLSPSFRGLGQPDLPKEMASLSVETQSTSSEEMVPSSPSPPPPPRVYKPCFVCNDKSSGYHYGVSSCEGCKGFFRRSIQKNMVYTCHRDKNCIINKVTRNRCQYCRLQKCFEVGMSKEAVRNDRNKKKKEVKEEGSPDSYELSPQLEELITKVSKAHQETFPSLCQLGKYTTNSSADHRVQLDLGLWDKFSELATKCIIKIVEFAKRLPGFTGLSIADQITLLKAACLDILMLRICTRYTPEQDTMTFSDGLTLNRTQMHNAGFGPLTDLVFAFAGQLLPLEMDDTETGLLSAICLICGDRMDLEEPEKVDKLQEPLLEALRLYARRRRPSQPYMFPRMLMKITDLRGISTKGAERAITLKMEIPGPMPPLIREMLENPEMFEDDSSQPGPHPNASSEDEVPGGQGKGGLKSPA
It counts as functional, cell-based.
Also: assay procedure not described here.

In general, AC50 refers to the midpoint of the concentration-response curve, whichever way the signal moves. In the case of `COc1ccc2c(c1)C(=O)N(CCc1ccc(S(=O)(=O)NC(=O)NC3CCCCC3)cc1)C(=O)C2(C)C` [GLIQUIDONE], the AC50 in experiment [1] was 6.3 µM; on Bile acid receptor [2], > 30 µM; on Bile acid receptor [3] it was > 10 µM; in experiment [4], > 30 µM; in experiment [5], 24 µM; in experiment [6] it was 2.6 µM.

(Values after ChEMBL document CHEMBL5291721, “A preclinical secondary pharmacology resource illuminates target-adverse drug reaction associations of marketed drugs” (Nat Commun, 2023).)
